In patent US20170182047A9, “Post-Translational Regulation of Catalytic Activities of Cytochrome P450 46A1 and Uses Thereof” (The Board of Regents of the University of Texas System, priority 2007, published 2017):
Read-outs that look alike come from different tables or passages of the source.

What was measured:
CYP46A1 [1] = target: T1, CYP46A1 (Homo sapiens, UniProt Q9Y6A2); experiment: Spectral binding assay of antifungal azoles; design: Recombinant full-length human CYPs 46A1 and 27A1 and bovine CYP11A1 were expressed and purified; made in house; settings: 0.3 μM purified P450; read-out: estimated Kd
T1 sequence (Q9Y6A2 whole entry): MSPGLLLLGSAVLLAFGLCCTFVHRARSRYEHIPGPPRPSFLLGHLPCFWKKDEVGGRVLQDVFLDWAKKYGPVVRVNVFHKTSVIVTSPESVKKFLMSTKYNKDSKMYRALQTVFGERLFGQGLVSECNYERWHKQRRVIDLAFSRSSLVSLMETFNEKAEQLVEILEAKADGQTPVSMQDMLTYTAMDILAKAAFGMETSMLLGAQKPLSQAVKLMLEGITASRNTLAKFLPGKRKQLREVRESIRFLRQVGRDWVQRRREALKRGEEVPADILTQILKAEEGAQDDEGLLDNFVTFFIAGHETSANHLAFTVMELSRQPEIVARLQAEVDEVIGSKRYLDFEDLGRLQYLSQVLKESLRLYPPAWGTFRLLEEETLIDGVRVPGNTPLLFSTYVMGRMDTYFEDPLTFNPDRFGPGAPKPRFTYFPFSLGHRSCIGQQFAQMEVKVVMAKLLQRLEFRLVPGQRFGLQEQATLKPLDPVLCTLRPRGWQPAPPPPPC
Procedure: (§1) Titrations of CYP46A1 were carried out in 50 mM potassium phosphate buffer (KPi), pH 7.2, containing 100 mM NaCl and 0.02% Cymal 6. CYPs 11A1 and 27A1 were in 50 mM KPi without any additives. Antifungal drugs were added from 0.2-5 mM stocks in 50% methanol. The apparent Kd and maximal absorbance change were estimated by non-linear least squares fitting using the quadratic form of the single-site binding equation (9).

CYP11A1 = target: T2, CYP11A1 (Bos taurus, UniProt P00189); experiment: Spectral binding assay of antifungal azoles; design: species or system bovine
T2 construct: Recombinant full-length human CYPs 46A1 and 27A1 and bovine CYP11A1 were expressed and purified; made in house
T2 sequence (P00189 40-520): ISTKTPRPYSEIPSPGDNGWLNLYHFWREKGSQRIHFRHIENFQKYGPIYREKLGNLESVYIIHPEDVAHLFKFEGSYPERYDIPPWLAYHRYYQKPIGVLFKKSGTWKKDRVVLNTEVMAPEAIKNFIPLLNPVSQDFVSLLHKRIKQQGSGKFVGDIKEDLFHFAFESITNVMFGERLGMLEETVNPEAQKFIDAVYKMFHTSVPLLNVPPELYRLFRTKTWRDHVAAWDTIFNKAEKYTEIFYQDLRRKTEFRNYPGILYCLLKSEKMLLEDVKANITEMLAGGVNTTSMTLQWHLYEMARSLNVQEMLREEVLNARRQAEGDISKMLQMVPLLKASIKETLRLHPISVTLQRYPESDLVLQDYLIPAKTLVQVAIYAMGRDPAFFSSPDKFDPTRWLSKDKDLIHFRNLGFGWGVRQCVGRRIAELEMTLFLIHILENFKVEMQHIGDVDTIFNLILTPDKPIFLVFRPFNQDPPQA
Procedure: as §1

CYP46A1 [2] = target: T1, CYP46A1; experiment: In vitro IC50 and Ki for CYP46A1-catalysed hydroxylation; format: biochemical; design: Recombinant full-length human CYPs 46A1 and 27A1 and bovine CYP11A1 were expressed and purified; made in house; settings: for IC50: 5.4 μM cholesterol
Procedure: Cholesterol hydroxylation by CYP46A1 was assayed for 20 min at 37° C. in 1 ml of 50 mM KPi, pH 7.2, containing 100 mM NaCl, 0.02% Cymal 6, 40 μg dilauroylglycerol-3-phosphatidylcholine and 2U of catalase. […] The enzymatic reaction was initiated by NADPH (final 1 mM) and terminated by vortexing with 2 ml of CH2Cl2. The organic phase was isolated, evaporated, dissolved in methanol, and subjected to HPLC. […] In addition, the Ki for cholesterol 24-hydroxylation was estimated assuming a model of competitive inhibition.

[3] = test system: genes involved in cholesterol homeostasis; experiment: mRNA expression in mouse brain after voriconazole; format: in vivo, C57/B6 J mice; settings: 5 daily i.p. injections 60 mg/kg
Procedure: (§2) The mice were sacrificed by cervical dislocation.
Total RNA was obtained from brain and liver tissue using Trizol (Invitrogen, Carlsbad, Calif.). cDNA was synthesised from 2 μg of total RNA using Capacity cDNA ReverseTranscription Kit (Applied Biosystems, Foster City, Calif.). Steady-state mRNA levels were estimated using Taqman probes (primer sequences available on request). All assays were run on an ABI Prism 7000 Sequense Detection System (Applied Biosystems; Foster City, Calif.). Estimation of a relative gene expression was performed using the comparative threshold cycle method, using hypoxathine-guanine phosphoribosyl transferase as endogenous control.

[4] = Brain levels of voriconazole; format: in vivo, C57/B6 J mice; settings: after 5 daily intraperitoneal injections (60 mg/kg body weight)
Procedure: as §2
Voriconazole was determined in serum and brain homogenates after the extraction with chloroform/methanol (2:1, v:v) and ethanol (10%, v/v, final), respectively. Voriconazole extract (100 μL) was then mixed with 200 μL acetonitrile, centrifuged at 10,000 g for 10 min, and 1 μL of the supernatant injected onto a Phenomenex Luna C18 3 μm column (100×2 mm) connected to the Agilent 1100 liquid chromatography-mass spectrometry system with an autosampler and solvent degasser. Gradient elution was with initial 35% B increasing to 100% B in 5 min (A=1% acetonitrile with 25 mM formic acid; B=100% acetonitrile with 25 mM formic acid). A structure analogue (UK115794, Pfizer Ltd) was used as internal standard. Ions were monitored in a positive mode at m/z 350 (voriconazole) and m/z 348 (internal standard).

[5] = test system: Cholesterol 24S-Hydroxylase (CYP46A1); experiment: Plasma oxysterol levels in voriconazole-treated mice
Procedure: Seven week old male C57/B6 J mice from Charles River were injected intraperitoneally with voriconazole (60 mg/kg or 75 mg/kg, corresponding to 0.6 and 0.75 ml, respectively, of the drug solution). The control mice were injected with the same solutions containing no voriconazole. The mice were sacrificed by cervical dislocation. Brain and liver were collected, snap frozen in liquid nitrogen and stored at −80° C.

full-length CYP46A1 = full-length CYP46A1 (Homo sapiens, UniProt Q9Y6A2); experiment: Inhibition/stimulation of cholesterol hydroxylase activity at fixed 43 μM test compound; format: biochemical; settings: 2.7 μM cholesterol, 43 μM compound; FIG. 4A-4C
Chain of full-length CYP46A1 (Q9Y6A2 whole entry): as the sequence (Q9Y6A2 whole entry) above

[6] = test system: Cholesterol 24S-Hydroxylase (CYP46A1); experiment: Brain sterol levels in mice after intraperitoneal voriconazole; format: in vivo, C57/B6 J mice
Procedure: as §2
Lipids were extracted from the brain according to Folch with some modifications. Approximately 10 mg of brain tissue was added to 1 ml of homogenization buffer (5 mM EDTA, 50 μg/ml butylated hydroxytoluene in phosphate-buffered saline, pH 7,4) in a clean glass tube, and the tissue was disrupted using a polytron homogeniser. Three milliliters of chloroform:methanol (2:1, v:v) were added to the homogenate and the vials were mixed by vortexing. Samples were centrifuged at 10,000 g for 10 min. The organic phase was transferred to a new vial. The aqueous phase was re-extracted as described previously three more times. The pooled organic phase was dried under stream of argon gas, and chloroform:methanol (2:1, v:v) added to the dried samples to achieve suitable concentration.

[7] = 60 mg/kg i.p. once a day for 5 days

In the case of C[C@@H](c1ncncc1F)[C@](O)(Cn1cncn1)c1ccc(F)cc1F [voriconazole], the Kd (CYP46A1 [1]) is reported as 50 nM, the Kd (CYP11A1; 0.3 μM purified P450, read-out: apparent Kd) is reported as 4800 nM and the “binding weaker than that to CYP46A1” value (CYP11A1; CYP11A1 vs CYP46A1) is reported as ~100 fold. The IC50 (CYP46A1 [2]; read-out: IC50 for cholesterol 24-hydroxylation) was 22 nM, the Ki (CYP46A1 [2]; estimated, competitive inhibition, cholesterol equal to the Km, read-out: Ki for cholesterol 24-hydroxylation) was 11 nM and the IC50 (CYP46A1 [2]; read-out: IC50 for 25- and 27-hydroxylations of 24S-hydroxycholesterol) was 47 nM. For the same compound, the “effect on HMG CoA reductase mRNA levels” value [3] was “significant suppressive effect”, the “effect on expression of CYP46A1 mRNA” value [3] was “no significant effect” and the “effect on expression of HMG CoA synthase mRNA” value [3] was “no significant effect”. For the same compound, the “level of voriconazole in the brain” value [4] was 43+8 μg/g wet weight, the concentration at 5 days ([4]; male, C57/B6 J, mouse, brain, read-out: level of voriconazole in the brain) was 123 µM and the “plasma concentration of 24S-hydroxycholesterol” value ([5]; pool of plasma, voriconazole-treated mice (control 18.8)) was 13.2 ng/mL. For the same compound, the “effect on plasma level of 27-hydroxycholesterol” value ([5]; voriconazole-treated mice) was “not significantly affected”, the “plasma level of 27-hydroxycholesterol” value ([5]; voriconazole-treated mice (controls 52)) was 46 ng/mL and the “suppression of plasma levels of 24S-hydroxycholesterol” value ([5]; vs control pool) was “about 30%”. The “inhibition of cholesterol hydroxylation (in words)” value (full-length CYP46A1) was “significant inhibition”, the “effect on the levels of 27-hydroxycholesterol in the brain” value [6, 7] was “no effect” and the “effect on the levels of cholesterol in the brain” value [6, 7] was “no effect”. For the same compound, the “level of lathosterol in the brain” value ([6]; 60 mg/kg i.p. once a day for 5 days, p<0.05) was “significantly reduced”, the “reduction in the levels of 24S-hydroxycholesterol in the brain” value ([6]; 60 mg/kg i.p. once a day for 5 days, p=0.03) was 37% and the “levels of 24S-hydroxycholesterol in the brain” value ([6]; different doses (60 or 75 mg/kg i.p.), six hours after the injection) was “appeared to reduce the levels of 24S-hydroxycholesterol”. The “effect on levels of lathosterol in the brain” value ([6]; single 60 mg/kg i.p., 2 hours) was “no significant effect”, the “effect on levels of total cholesterol in the brain” value ([6]; single 60 mg/kg i.p., 2 hours) was “no significant effect” and the “reduction of levels of 24S-hydroxycholesterol in the brain” value ([6]; single 60 mg/kg i.p., 2 hours, not statistically significant (p>0.05)) was 20%. For the same compound, the “brain levels of dehydrolanosterol” value ([6]; voriconazole-treated mice (controls 0.14+0.05)) was 1.9+0.7 ng/mg tissue, the “brain levels of squalene” value ([6]; voriconazole-treated mice (controls 2.2+0.8), p=0.05) was 1.7+0.6 ng/mg tissue and the “brain levels of lanosterol” value ([6]; voriconazole-treated mice (controls 6.1+2.0), p<0.001) was 27+10 ng/mg tissue.
